Assay results taken from paper PMC4754833, “Rilpivirine analogs potently inhibit drug-resistant HIV-1 mutants” (Retrovirology, 2016).

Key:
HIV-1 RT mutant E40K = assay: single round infection assay, E40K; format: cell-based; conditions: for fold-change of IC50 of the mutant relative to WT: E40K vs WT
Protocol: (§1) The human osteosarcoma cell line, HOS, was obtained from Dr. Richard Schwartz (Michigan State University, East Lansing, MI) and grown in Dulbecco’s modified Eagle’s medium (Invitrogen, Carlsbad, CA) supplemented with 5 % (v/v) fetal bovine serum, 5 % newborn calf serum, and penicillin (50 units/ml) plus streptomycin (50 µg/ml; Quality Biological, Gaithersburg, MD). Virion production and single-round infectivity assays were used to determine antiviral activity (IC50 values) of the compounds as previously described.
(§2) pNLNgoMIVR-ΔEnv.LUC has been described previously. The RT open reading frame was removed from pNLNgoMIVR-ΔEnv.LUC (digestion with SpeI and SalI) and inserted between the SpeI and SalI sites of pBluescript II KS+. Using that construct as the wild-type template, we prepared the following HIV-1 RT mutants using the QuikChange II XL (Stratagene, La Jolla, CA) site-directed mutagenesis protocol kit: L100I, K103N, Y181C, Y188L, H221Y, K103N/Y181C, G190A, G190S, M230L, P236L, L100I/K103N, K103N/P225H, V106A/G190A/F227L, V106A, L234I, V106A/F227L, V106A/L234I, V106A/F227L/L234I, E40K, D67E, K101E, V111A, E138K, M184I, M184V, K101E/M184I, K101E/M184V, E138K/M184I, E138K/M184V, K101P, Y181I, and K101P/V179I. The following sense oligonucleotides were used with matching cognate antisense oligonucleotides (not shown) (Integrated DNA Technologies, Coralville, IA) in the mutagenesis: L100I, 5′-[…]-3′; L100I 2-103, 5′-[…]-3′; K103N, 5′-[…]-3′; Y181C, 5′-[…]-3′; Y188L, 5′-[…]-3′; H221Y, 5′-[…]-3′; G190A, 5′-[…]-3′; G190S, 5′-[…]-3′; P225H, 5′-[…]-3′; F227, 5′-[…]-3′; M230L, 5′-[…]-3′; P236L, 5′-[…]-3′; V106A, 5′-[…]-3′; L234I, 5′-[…]-3′; E40K, 5′-[…]-3′; D67E, 5′-[…]-3′; K101E, 5′-[…]-3′; V111A, 5′-[…]-3′; E138K, 5′-[…]-3′; M184I, 5′-[…]-3′; M184V, 5′-[…]-3′; K101P, 5′-[…]-3′; Y181I, 5′-[…]-3′; K101P/V179I, 5′-[…]-3′. The double mutants K103N/Y181C, K103N/P225H, and L100I/K103N were made using the previously generated K103N mutant and the appropriate oligonucleotides to add the second mutation, Y181C, P225, and L100I respectively. The double mutants V106A/F227L and V106A/L234I were prepared using the previously generated V106A mutant and the appropriate oligonucleotides to add the second mutation, F227L and L234I, respectively. The double mutants K101E/M184I and K101E/M184V were constructed using the previously generated K101E mutant and the appropriate oligonucleotides to add the second mutation, M184I and M184V, respectively. The double mutants E138K/M184I and E138K/M184V were constructed using the previously generated E138K mutant and the appropriate oligonucleotides for the second mutation, M184I and M184V, respectively. The triple mutant V106A/F227L/L234I was made using the previously generated V106A/F227L double mutant and the appropriate oligonucleotides for the third mutation, L234I. The triple mutant V106A/G190A/F227L was constructed in a series of steps using the previously generated V106A mutant and the appropriate oligonucleotides for the second mutation, G190A, to generate the double mutant V106A/G190A, and then the triple mutant was made using double mutant V106A/G190A and oligonucleotides for the third mutation, F227L. The DNA sequence of each construct was verified by DNA sequence determination. The sequences encoding the mutant RTs were then subcloned into pNLNgoMIVR-ΔEnv.LUC (between the KpnI and SalI sites) to produce the mutant HIV-1 constructs. These DNA sequences were also checked independently by DNA sequence determination.
(§3) 10.1186/s12977-016-0244-2 The IC50 values (nM) of RPV and the RPV analogs were determined against the NNRTI resistant mutants were measured by using a single round infection assay, n = 4. The concentrations (nM) are measured by reductions in luciferase reporter activity followed by the standard deviations. […]

[1] = tested on: HIV-1 RT mutant K101E/M184I; assay: single round infection assay, K101E/M184I; format: cell-based; conditions: for fold-change of IC50 of the mutant relative to WT: K101E/M184I vs WT; for IC50: ± SD, n=4
Protocol: as §1, §2, §3

HIV-1 RT mutant K101E = assay: single round infection assay, K101E; format: cell-based; conditions: for IC50: ± SD, n=4; for fold-change of IC50 of the mutant relative to WT: K101E vs WT
Protocol: as §1, §2, §3

[2] = tested on: HIV-1 RT mutant V106A/F227L; assay: single round infection assay, V106A/F227L; format: cell-based; conditions: V106A/F227L vs WT
Protocol: as §1, §2, §3

HIV-1 RT mutant K103N = tested on: HIV-1 RT mutant K103N; set-up: method as in PMID 23217210; conditions: previous study; cited from earlier work
HIV-1 RT mutant L100I = tested on: HIV-1 RT mutant L100I; set-up: method as in PMID 23217210; conditions: previous study; cited from earlier work
HIV-1 RT mutant V106A = assay: single round infection assay, V106A; format: cell-based; conditions: for fold-change of IC50 of the mutant relative to WT: V106A vs WT; for IC50: ± SD, n=4
Protocol: as §1, §2, §3

HIV-1 RT mutant E138K = assay: single round infection assay, E138K; format: cell-based; conditions: for fold-change of IC50 of the mutant relative to WT: E138K vs WT; for IC50: ± SD, n=4
Protocol: as §1, §2, §3

HIV-1 RT mutant G190A = assay: single round infection assay, G190A; format: cell-based; conditions: for IC50: Human immunodeficiency virus 1
Protocol: as §1, §2, §3

HIV-1 RT mutant K101P = assay: single round infection assay, K101P; format: cell-based; conditions: for IC50: Human immunodeficiency virus 1; for fold-change of IC50 of the mutant relative to WT: K101P vs WT
Protocol: as §1, §2, §3

HIV-1 RT mutant Y181I = assay: single round infection assay, Y181I; format: cell-based; conditions: for IC50: Human immunodeficiency virus 1; for fold-change of IC50 of the mutant relative to WT: Y181I vs WT
Protocol: as §1, §2, §3

WT HIV-1 = conditions: previous study; cited from earlier work
[3] = tested on: HIV-1 RT mutant K101E/M184V; assay: single round infection assay, K101E/M184V; format: cell-based; conditions: for fold-change of IC50 of the mutant relative to WT: K101E/M184V vs WT; for IC50: ± SD, n=4
Protocol: as §1, §2, §3

[4] = Human immunodeficiency virus 1, K101E
[5] = Human immunodeficiency virus 1, E138K
[6] = Human immunodeficiency virus 1, K101E/M184I
[7] = Human immunodeficiency virus 1, V106A (selected by DOR)
[8] = Human immunodeficiency virus 1, K101E/M184V

Structure (SMILES) | fold-change of IC50 of the mutant relative to WT (HIV-1 RT mutant E40K) | fold-change of IC50 of the mutant relative to WT [1] | IC50 (HIV-1 RT mutant K101E; [4]) | fold-change of IC50 of the mutant relative to WT (HIV-1 RT mutant K101E) | IC50 (HIV-1 RT mutant K101E; K101E) | fold-change of IC50 of the mutant relative to WT [2] | IC50 (HIV-1 RT mutant K103N) | IC50 (HIV-1 RT mutant L100I) | fold-change of IC50 of the mutant relative to WT (HIV-1 RT mutant V106A) | fold-change of IC50 of the mutant relative to WT (HIV-1 RT mutant E138K) | IC50 (HIV-1 RT mutant G190A) | IC50 (HIV-1 RT mutant K101P) | fold-change of IC50 of the mutant relative to WT (HIV-1 RT mutant K101P) | IC50 (HIV-1 RT mutant Y181I) | fold-change of IC50 of the mutant relative to WT (HIV-1 RT mutant Y181I) | IC50 (WT HIV-1) | IC50 (HIV-1 RT mutant E138K; E138K) | IC50 (HIV-1 RT mutant E138K; [5]) | fold-change of IC50 of the mutant relative to WT [3] | IC50 [1, 6] | also measured
Cc1cc(/C=C/C#N)cc(C)c1Nc1ccnc(Nc2ccc(C#N)cc2)n1 [RPV, rilpivirine] | < 2 | 3 | < 2.5 nM | 11 | 2.6 ± 1.6 nM | 3 | < 7 nM | < 7 nM | < 2 | 4 | 0.4 ± 0.08 nM | 6.2 nM | 26 | 8.8 nM | 37 | < 7 nM | – | – | – | – | fold-change of IC50 of the mutant relative to WT (HIV-1 RT mutant G190A; G190A vs WT): < 2
Cc1cc(/C=C/C#N)cc(C)c1Nc1nc(Nc2ccc(C#N)cc2)ncc1[N+](=O)[O-] [compound 6] | 2 | < 2 | < 2.5 nM | 5 | 2.6 ± 0.96 nM | 4 | < 7 nM | < 7 nM | – | 3 | 0.2 ± 0.09 nM | 2.5 nM | 5 | 55.3 nM | 110 | < 7 nM | 1.4 ± 0.3 nM | < 2.5 nM | 2 | – | –
Cc1cc(/C=C/C#N)cc(C)c1Nc1ncc(N)c(Nc2ccc(C#N)cc2)n1 [compound 9] | 2 | 3 | < 6 nM | 3 | 4.1 ± 1.5 nM | 17 | < 7 nM | < 7 nM | < 2 | 4 | 0.6 nM | > 100 nM | – | > 100 nM | – | < 7 nM | 5.6 ± 1.4 nM | < 6 nM | < 2 | < 6 nM | IC50 ([1]; K101E/M184I): 3.3 ± 0.85 nM; IC50 (HIV-1 RT mutant V106A; [7]): < 5 nM; IC50 (HIV-1 RT mutant V106A; V106A (selected by DOR)): 2.5 ± 1.2 nM
Cc1cc(/C=C/C#N)cc(C)c1Nc1nc(Nc2ccc(C(F)(F)F)cc2)c2nc[nH]c2n1 [compound 15] | – | < 2 | < 6 nM | 4 | 6.2 ± 1.2 nM | – | < 7 nM | < 7 nM | < 2 | 4 | 0.77 ± 0.19 nM | > 100 nM | – | 50.2 nM | 30 | < 7 nM | 6.3 ± 1.3 nM | < 6 nM | 2 | – | IC50 [3, 8]: < 6 nM; IC50 ([3]; K101E/M184V): 3.8 ± 0.42 nM
Cc1cc(/C=C/C#N)cc(C)c1Nc1ncc2ncn(-c3ccc(C#N)cc3)c2n1 [compound 26] | – | – | 56.1 ± 4.1 nM | 7 | – | 8 | – | – | – | 4 | 2.2 nM | > 100 nM | – | > 100 nM | – | – | – | 28.8 ± 1.1 nM | < 2 | 7.3 ± 1.8 nM | IC50 (HIV-1 RT mutant E40K; Human immunodeficiency virus 1, E40K, ± SD, n=4): 4.2 ± 0.8 nM; IC50 (HIV-1 RT mutant V106A; [7]): 4.9 ± 1.3 nM; IC50 [3, 8]: 9.1 ± 0.1 nM
